In one series the test system is MCF-7. Briefly: MTT cytotoxicity, MCF-7. The class given is cell-based. The note with it: Homo sapiens, MCF7, read-out: IC50 (µM) Cancer Cell Lines MCF-7. From the text: (§1) Cells and Materials. For the experiments, we used tumor cell cultures M-HeLa clone 11 (epithelioid carcinoma of the cervix, subline HeLa, clone M-HeLa), HuTu 80, human duodenal adenocarcinoma, Hep-2, human epithelial cells, SH-SY5Y, human neuroblast-like cells, A549, human lung adenocarcinoma, PA-1, human ovarian teratocarcinoma and MCF-7, a human mammary ductal adenocarcinoma from the collection of the Institute of Cytology, Russian Academy of Sciences (St. Petersburg, Russia); human liver cells (Chang liver) were from the collection and the Research Institute of Virology of the Russian Academy of Medical Sciences (Moscow, Russia).
(§2) MTT Assay. The cytotoxic effect on cells was determined using the colorimetric method of cell proliferation—the MTT test. NADP-H-dependent cellular oxidoreductase enzymes can, under certain conditions, reflect the number of viable cells. These enzymes reduce the tetrazolium dye (MTT) 3-(4,5-dimethylthiazol-2-yl)-2,5-diphenyl-tetrazolium bromide to insoluble blue-violet formazan, which crystallizes inside the cell. The amount of formed formazan is proportional to the number of cells with active metabolism. […] Optical density was recorded at 540 nm on an Invitrologic microplate reader (Novosibirsk, Russia). […]
(§3) Statistical analysis. The IC50 values were calculated using the MLA–Quest Graph™ IC50 Calculator (AAT Bioquest, Inc., Sunnyvale, CA, USA), 14 February 2022. […]

For another series, the system named is PA-1. Nature of the series: MTT cytotoxicity, PA-1. It is filed as cell-based. The note with it: Homo sapiens, read-out: IC50 (µM) Cancer Cell Lines PA-1.
Source text: as §1, §2, §3

For a further series, the system named is Chang Liver. Briefly: MTT cytotoxicity, normal Chang liver cells. It is filed as cell-based, human. The note with it: Homo sapiens, Chang liver, 48 h incubation, read-out: IC50 (µM) Normal Cell Line Chang Liver.
Source text: as §1
(§4) MTT Assay. The cytotoxic effect on cells was determined using the colorimetric method of cell proliferation—the MTT test. NADP-H-dependent cellular oxidoreductase enzymes can, under certain conditions, reflect the number of viable cells. These enzymes reduce the tetrazolium dye (MTT) 3-(4,5-dimethylthiazol-2-yl)-2,5-diphenyl-tetrazolium bromide to insoluble blue-violet formazan, which crystallizes inside the cell. The amount of formed formazan is proportional to the number of cells with active metabolism. Cells were seeded on a 96-well Nunc plate at a concentration of 5 × 10^3 cells per well in a volume of 100 μL of medium and cultured in a CO2 incubator at 37 °C until a monolayer was formed. After the nutrient medium was removed, 100 µL of the test drug solutions at the given dilutions were added to the wells, which were prepared directly in the nutrient medium with the addition of 5% DMSO to improve solubility. After 48 h of incubation of the cells with the tested compounds, the nutrient medium was removed from the plates and 100 µL of the nutrient medium without serum with MTT at a concentration of 0.5 mg/mL was added and incubated for 4 h at 37 °C. Formazan crystals were added 100 µL of DMSO to each well. Optical density was recorded at 540 nm on an Invitrologic microplate reader (Novosibirsk, Russia). The experiments for all compounds were repeated three times.
(§5) Statistical analysis. The IC50 values were calculated using the MLA–Quest Graph™ IC50 Calculator (AAT Bioquest, Inc., Sunnyvale, CA, USA), 14 February 2022. Statistical analysis was performed with the Mann–Whitney test (p < 0.05). Tabular and graphical data contain averages and standard error.

The test system of a further series is A549. Briefly: MTT cytotoxicity, A549. The class given is cell-based. Conditions: Homo sapiens, read-out: IC50 (µM) Cancer Cell Lines A549.
Source text: as §1, §2, §3

In the next series the test system is SH-SY5Y. Briefly: MTT cytotoxicity, SH-SY5Y. Conditions: Homo sapiens, read-out: IC50 (µM) Cancer Cell Lines SH-SY5Y. It is filed as cell-based.
Source text: as §1, §2, §3

The test system of series [1] is HuTu 80 cells. Briefly: Mitochondrial membrane potential, JC-10 flow cytometry. The class given is cell-based, human. The note with it: 24 h treatment, IC50/2 and IC50. The procedure:
In this study, we used the fluorescent dye JC-10 from the Mitochondria Membrane Potential Kit (Sigma, St. Louis, MO, USA). Changes in mitochondrial membrane potential under the influence of lead compounds 5a and 6a were determined at IC50/2 and IC50 concentrations on the HuTu 80 cell line. When JC-10 accumulates in the mitochondrial matrix, it forms fluorescent J-aggregates. Their red fluorescence is characteristic for normal cells with high mitochondrial membrane potential. The reduction in mitochondrial membrane potential in apoptotic cells allows JC-10 to escape out of the mitochondria in a monomeric form which has green fluorescence. The mitochondrial membrane potential of HuTu 80 cells is decreased after 24 h treatment with the lead compounds 5a and 6a. The change becomes more pronounced as the concentrations of the tested compounds approach IC50 (Figure 7).
Cell Culture. HuTu 80 cells at 1 × 10^6 cells/well in a final volume of 2 mL were seeded into six-well plates. After 48 h of incubation, various concentrations of lead compounds were added to wells.
Mitochondrial Membrane Potential. […] After the cells were rinsed three times and suspended in PBS, the JC-10 fluorescence was observed using flow cytometry (Guava easy Cyte, MERCK, Rahway, NJ, USA).

The subject of the next series is HuTu 80. Nature of the series: MTT cytotoxicity, HuTu 80. It is filed as cell-based, human.
Source text: as §1, §4, §5

Another series has as its system Hep-2. Nature of the series: MTT cytotoxicity, Hep-2. The class given is cell-based. The note with it: Homo sapiens, read-out: IC50 (µM) Cancer Cell Lines Hep-2.
Source text: as §1, §2, §3

The test system of series [2] is HuTu 80 cells. Nature of the series: Intracellular ROS, CellROX Deep Red flow cytometry. The class given is cell-based, human. The note with it: IC50/2 and IC50. The method, then:
The apoptosis via the mitochondrial pathway also increases the production of reactive oxygen species (ROS). As mitochondria itself becomes the target of ROS, an increase in their production disrupts mitochondrial functions and culminates in irreversible cell damage. Therefore, the effect of lead compounds 6a and 5a at IC50/2 and IC50 concentrations on ROS production in HuTu 80 cells was evaluated using flow cytometry. […] Such an effect is not observed for intact cells in the presence of both compounds, indicating an increase in ROS production in cancer tissues.
Detection of Intracellular ROS. HuTU 80 cells were incubated with lead compounds at concentrations of IC50/2 and IC50 for 48 h. ROS generation was investigated using flow cytometry assay and CellROX® Deep Red flow cytometry kit. For this purpose, […] cells were harvested at 2000 rpm for 5 min and then washed twice with ice-cold PBS, followed by resuspension in 0.1 mL of medium without FBS, to which was added 0.2 μL of CellROX® Deep Red, which was followed by incubation at 37 °C for 30 min. The cells were washed three times and suspended in PBS. After that, the production of ROS in the cells was immediately monitored using flow cytometer (Guava easy Cyte, MERCK, Rahway, NJ, USA).
A general note: Flow cytometry measures light scatter and fluorescence of single cells or particles in a stream.

Usually IC50 stands for the concentration at which inhibition is half-maximal. In the case of `O=C(C[P+](c1ccccc1)(c1ccccc1)c1ccccc1)NCCC1c2c(ccc3ccccc23)Oc2ccc3ccccc3c21` [Compound 6a], the IC50 stood at 7.12 ± 0.76 µM in the series with MCF-7; 11.2 ± 1.36 µM in the series on PA-1; 41 ± 3.5 µM in the series on Chang Liver; 5.47 ± 0.07 µM in the series on A549; 10.9 ± 0.23 µM in the series with SH-SY5Y; 1.7 ± 0.1 µM in the series on HuTu 80 (Homo sapiens, HuTu80, 48 h, MTT, 48 h incubation, read-out: IC50 (µM) Cancer Cell Lines HuTu 80). In the series on Hep-2, the 50% inhibitory concentration (IC50) is 2.34 ± 0.01 µM. Also, the “mitochondrial membrane potential (in words)” value with HuTu 80 cells [1] is “decreased”. Moreover, the “times more effective / more cytotoxic than the reference drug sorafenib” value in the series on HuTu 80 (HuTu 80) is “three times more effective”. Also, the “ROS production, CellROX Deep Red fluorescence intensity (in words)” value in the series with HuTu 80 cells [2] is “significant reliable increase”.

For the origin of these results see article PMC11203978, “Discovery of Di(het)arylmethane and Dibenzoxanthene Derivatives as Potential Anticancer Agents” (International Journal of Molecular Sciences, 2024).
